Results reported in the supplement of paper PMC10307832.

Columns and labels:
Assay in all cases: relative viability (nuclei count vs DMSO), 5 days (fraction); higher = more cells survive
Conditions in all cases: main component drawn
Bleomycin + Navitoclax = compound: CC1=C(N=C(N=C1N)[C@H](CC(=O)N)NC[C@@H](C(=O)N)N)C(=O)N[C@@H]([C@H](C2=CN=CN2)OC3C(C(C(C(O3)CO)O)O)OC4C(C(C(C(O4)CO)O)OC(=O)N)O)C(=O)N[C@H](C)[C@H]([C@H](C)C(=O)N[C@@H]([C@@H](C)O)C(=O)NCCC5=NC(=CS5)C6=NC(=CS6)C(=O)NCCC[S+](C)C)O [Bleomycin] + CC1(C)CCC(c2ccc(Cl)cc2)=C(CN2CCN(c3ccc(C(=O)NS(=O)(=O)c4ccc(N[C@H](CCN5CCOCC5)CSc5ccccc5)c(S(=O)(=O)C(F)(F)F)c4)cc3)CC2)C1 [Navitoclax] (partner 0.5 µM)
Method in brief: (§1)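 Nuclei were stained with Hoechst during a one-step fixation (final 0.05% Triton X-100, 1% formaldehyde, 1 ug/ml Hoechst) carried out 5 days after dosing, then counted on 4× images. The cells, lung cancer lines in 1536-well plates, had been dosed by pin tool the day after seeding with one drug alone or a fixed anchor-drug dose plus five library-drug doses (not always all listed) in √10 steps. Relative viability is the nuclei count in treated wells divided by that in vehicle wells, and each value is the median of duplicate plates.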

Bleomycin + Trametinib = compound: CC1=C(N=C(N=C1N)[C@H](CC(=O)N)NC[C@@H](C(=O)N)N)C(=O)N[C@@H]([C@H](C2=CN=CN2)OC3C(C(C(C(O3)CO)O)O)OC4C(C(C(C(O4)CO)O)OC(=O)N)O)C(=O)N[C@H](C)[C@H]([C@H](C)C(=O)N[C@@H]([C@@H](C)O)C(=O)NCCC5=NC(=CS5)C6=NC(=CS6)C(=O)NCCC[S+](C)C)O [Bleomycin] + CC(=O)Nc1cccc(-n2c(=O)n(C3CC3)c(=O)c3c(Nc4ccc(I)cc4F)n(C)c(=O)c(C)c32)c1 [Trametinib] (partner 0.02 µM)
Method in brief: as §1

Bleomycin + Tozasertib = compound: CC1=C(N=C(N=C1N)[C@H](CC(=O)N)NC[C@@H](C(=O)N)N)C(=O)N[C@@H]([C@H](C2=CN=CN2)OC3C(C(C(C(O3)CO)O)O)OC4C(C(C(C(O4)CO)O)OC(=O)N)O)C(=O)N[C@H](C)[C@H]([C@H](C)C(=O)N[C@@H]([C@@H](C)O)C(=O)NCCC5=NC(=CS5)C6=NC(=CS6)C(=O)NCCC[S+](C)C)O [Bleomycin] + Cc1cc(Nc2cc(N3CCN(C)CC3)nc(Sc3ccc(NC(=O)C4CC4)cc3)n2)n[nH]1 [Tozasertib] (partner 0.1 µM)
Method in brief: as §1

Bleomycin + Foretinib = compound: CC1=C(N=C(N=C1N)[C@H](CC(=O)N)NC[C@@H](C(=O)N)N)C(=O)N[C@@H]([C@H](C2=CN=CN2)OC3C(C(C(C(O3)CO)O)O)OC4C(C(C(C(O4)CO)O)OC(=O)N)O)C(=O)N[C@H](C)[C@H]([C@H](C)C(=O)N[C@@H]([C@@H](C)O)C(=O)NCCC5=NC(=CS5)C6=NC(=CS6)C(=O)NCCC[S+](C)C)O [Bleomycin] + COc1cc2c(Oc3ccc(NC(=O)C4(C(=O)Nc5ccc(F)cc5)CC4)cc3F)ccnc2cc1OCCCN1CCOCC1 [Foretinib] (partner 0.25 µM)
Method in brief: as §1

Cell Line: UMC-11
- relative viability (Bleomycin + Navitoclax; first compound 0.01 µM): 0.376
- relative viability (Bleomycin + Navitoclax; first compound 0.03162 µM): 0.264
- relative viability (Bleomycin + Navitoclax; first compound 0.1 µM): 0.286
- relative viability (Bleomycin + Navitoclax; first compound 0.3162 µM): 0.22
- relative viability (Bleomycin + Navitoclax; first compound 1 µM): 0.205
- relative viability (Bleomycin + Trametinib; first compound 0.01 µM): 0.653
- relative viability (Bleomycin + Trametinib; first compound 0.03162 µM): 0.652
- relative viability (Bleomycin + Trametinib; first compound 0.1 µM): 0.774
- relative viability (Bleomycin + Trametinib; first compound 0.3162 µM): 0.632
- relative viability (Bleomycin + Trametinib; first compound 1 µM): 0.345
- relative viability (Bleomycin + Tozasertib; first compound 0.01 µM): 0.185
- relative viability (Bleomycin + Tozasertib; first compound 0.03162 µM): 0.196
- relative viability (Bleomycin + Tozasertib; first compound 0.1 µM): 0.208
- relative viability (Bleomycin + Tozasertib; first compound 0.3162 µM): 0.203
- relative viability (Bleomycin + Tozasertib; first compound 1 µM): 0.18
- relative viability (Bleomycin + Foretinib; first compound 0.01 µM): 0.93
- relative viability (Bleomycin + Foretinib; first compound 0.03162 µM): 1.02
- relative viability (Bleomycin + Foretinib; first compound 0.1 µM): 1.06
- relative viability (Bleomycin + Foretinib; first compound 0.3162 µM): 0.742
- relative viability (Bleomycin + Foretinib; first compound 1 µM): 0.574
